The source of these data is patent publication US20240400545A1, “COMPOUND SERVING AS KAT6 INHIBITOR” (Hangzhou Innogate Pharma Co., Ltd., priority 2021, published 2024).

Data set [1] in a line: Pharmacokinetic study in rats (intragastrical administration). The note with it: plasma.
Experimental: (§1) All measurement data were collected and processed by Masslynx V4.1 software, and the data were calculated and processed by Microsoft Excel. The statistical moment method of WinNonLin 8.0 software was used to calculate the pharmacokinetic parameters. These mainly include kinetic parameters Tmax, T1/2, Cmax, AUC0-24 h etc. Column: ACQUITY UPLC BEH C18 (2.1 mm×50 mm, 1.7 μm); column temperature 40° C.; mobile phase A is water (0.1% formic acid), mobile phase B is acetonitrile, flow rate is 0.350 mL/min, gradient elution is adopted, the elution gradient is 0.50 min: 10% B; 1.50 min: 90% B; 2.50 min: 90% B; 2.51 min: 10% B; 3.50 min: stop. Injection volume: 1 μL.
(§2) Animals: 3 male SD rats with a weight range of 200-220 g were purchased and kept in the laboratory of the Experimental Animal Center for 2 days and then used. They were fasted for 12 hours predose and 4 hours after dosing. Drinking water was free during the test. After the rats were gavage, blood samples were taken according to the established time point.
(§3) Solvent: 0.4% ethanol+0.4% Tween80+99.2% (0.5% methylcellulose M450). Preparation of the solution for intragastrical administration: the compounds were accurately weighed and added to the solvent, and ultrasound was used at room temperature for 5 minutes to completely dissolve the drug, and a 0.3 mg/mL medicinal solution was prepared.
(§4) A single administration was also used to study the pharmacokinetics of the drug sample in rats.
(§5) After intragastrical administration, blood was taken from the orbit at 0.25, 0.5, 1, 2, 4, 8, 10 and 24 hours. Then 50 μL of the plasma sample was taken and added 200 μL of acetonitrile (including internal standard control verapamil 2 ng/mL), vortexed for 3 min and centrifuged at 20000 rcf, 4° C. for 10 min. The supernatant plasma was used for LC-MS/MS analysis.
(§6) The compounds were accurately weighed to prepare different concentrations, and quantitative analysis on mass spectrometry was performed to establish a standard curve, and then the concentration of the above-mentioned compound in the plasma was tested to obtain its concentration at different time points. All measurement data were collected and processed by relevant software, and the statistical moment method was used to calculate the pharmacokinetic parameters (mainly including kinetic parameters Tmax, T1/2, Cmax, AUC0-24 h etc).
Data set [2] deals with KAT6A enzyme (catalytic domain) (Homo sapiens (Human), UniProt Q92794). The data set can be described thus: Inhibition of KAT6A enzyme activity ([3H]-acetyl-CoA / H3 (1-21) peptide, Flashplate). It counts as biochemical. The note with it: for IC50: KAT6A catalytic domain, [3H]-acetyl-CoA, substrate peptide H3 (1-21); for inhibition at 0.011 µM: KAT6A, compound concentration 11 nM, read-out: Inhibition % of compounds at the concentration of 11 nM. The protocol:
No. […] The plate was incubated at room temperature for 1 hour. 10 μL of the stop solution was added to terminate the reaction. 25 μL of the reaction solution was transferred to a Flashplate (Perkin Elmer, Cat. No. […]) and incubated at room temperature for 1 hour. The plate was read using Microbeta. The inhibition rate of the compounds was calculated using the formula of Excel: inhibition %=(Max-Signal)/(Max-Min)*100%. Where max is the value of the DMSO control, min is the value of the non-enzymatic control, and signal is the value of the well where the compound was tested. The curve was fitted using XLFit software and IC50 was calculated.

The conditions of data set [3]: rat, in vivo, po, 3 mg/kg.
Experimental: as §1, §2, §3, §4, §5, §6
The mark [4] stands for this setting: male SD rats, intragastrical, 1.5 mg/Kg.

Read-outs that look alike come from different tables or passages of the source. Bounds are passed on as bounds.

Chain of KAT6A enzyme (catalytic domain) (Q92794 504-778): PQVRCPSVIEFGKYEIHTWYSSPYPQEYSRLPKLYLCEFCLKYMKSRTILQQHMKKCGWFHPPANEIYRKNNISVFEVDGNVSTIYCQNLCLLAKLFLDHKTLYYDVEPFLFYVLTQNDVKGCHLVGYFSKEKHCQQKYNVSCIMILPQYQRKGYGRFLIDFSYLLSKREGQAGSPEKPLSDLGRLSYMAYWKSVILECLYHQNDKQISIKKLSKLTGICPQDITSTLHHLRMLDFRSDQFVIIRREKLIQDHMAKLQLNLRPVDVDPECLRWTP

In the case of `COc1ccc(OC2CCC2)cc1S(=O)(=O)Nc1noc2cc(Cn3cccn3)cc(OC)c12` [Compound 1], in data set [1] (setting [4]), the AUC0-24h was 4481.07 ng·h/mL, the Cmax is 392.76 ng/mL, the T1/2 was determined as 2.66 h and the Tmax worked out at 3.00 h. In data set [2], this molecule returned an IC50 below 5 nM.

Take `COc1ccc(N2CCC2)cc1S(=O)(=O)Nc1noc2cc(Cn3cccn3)cc(OC)c12` [Compound 2]: in data set [2], the IC50 is below 10 nM.

As for `C#Cc1cc(OC)c(S(=O)(=O)Nc2noc3cc(Cn4cccn4)cc(OC)c23)c(OC)c1` [Compound 4], the concentration for half-maximal inhibition (IC50) in data set [2] is below 5 nM. In data set [3], the AUC0-24h was 109958.71 ng·h/mL, the Cmax worked out at 6737.13 ng/mL, the T1/2 is 8.04 h and the Tmax was determined as 9.33 h.

For the molecule `C#Cc1ccc(S(=O)(=O)Nc2noc3cc(Cn4cccn4)cc(OC)c23)c(OC)c1` [Compound 11], in data set [1] (male, SD, rat, po, 2 mg/kg), the AUC(0-t) worked out at 53700 ng·h/mL, the Cmax came out at 6380 ng/mL, the Tmax was found to be 1.33 h and the half-life is 5.29 h.

As for `COc1cc(C#CC2CC2)ccc1S(=O)(=O)Nc1noc2cc(Cn3cccn3)cc(OC)c12` [Compound 12], in data set [1] (male, SD, rat, po, 3 mg/kg), the AUC(0-t) was 82200 ng·h/mL, the highest level (Cmax) was 4830 ng/mL, the Tmax was found to be 2 h and the half-life was 24.6 h.

Turning to `COc1cc(C#CC2COC2)cc(OC)c1S(=O)(=O)Nc1noc2cc(Cn3cccn3)cc(OC)c12` [Compound 14], in data set [1] (male, SD, rat, po, 3 mg/kg), the area under the curve AUC(0-t) came out at 5960 ng·h/mL, the Cmax came out at 428 ng/mL, the Tmax was 3.33 h and the half-life is 6.62 h. In data set [2], the inhibition at 0.011 µM amounted to 67%.

Regarding `COc1cc(C#CC2CC(F)(F)C2)cc(OC)c1S(=O)(=O)Nc1noc2cc(Cn3cccn3)cc(OC)c12` [Compound 15], in data set [1] (male, SD, rat, po, 3 mg/kg), the AUC(0-t) came out at 32500 ng·h/mL, the Cmax was 2120 ng/mL, the Tmax amounted to 3.33 h and the half-life is 7.85 h.

On to `CC#Cc1ccc(S(=O)(=O)Nc2noc3cc(Cn4cccn4)cc(OC)c23)c(OC)c1` [Compound 16], for which, in data set [1] (male, SD, rat, po, 3 mg/kg), the AUC(0-t) turned out to be 45300 ng·h/mL, the Cmax stood at 2790 ng/mL, the Tmax is 2.67 h and the half-life is 14.4 h.

As for `COc1cc(N2CCC2)ccc1S(=O)(=O)Nc1noc2cc(Cn3cccn3)cc(OC)c12` [Compound 17], in data set [1] (male, SD, rat, po, 3 mg/kg), the AUC(0-t) is 3120 ng·h/mL, the Cmax came to 229 ng/mL, the Tmax worked out at 2.67 h and the half-life was 3.17 h. Also, in data set [2], the inhibition at 0.011 µM came to 75%.
